This note sets out measurements from patent publication US20220372014A1, “NEUROPROTECTIVE COMPOUNDS AND METHODS OF USE THEREOF” (The Johns Hopkins University, priority 2019, published 2022).

Structures are written as SMILES.

Experiment [1] concerns HeLa cells or neuronal cells. Nature of the experiment: Cell death assay of Example 3 (MNNG, alamarBlue; protection against parthanatos, Table 4). Type of experiment: cell-based. As to conditions: 1 μM test compound, MNNG-induced cell death, alamarBlue. As to the method: Cell death assay: 200 μl of cells (HeLa cells or neuronal cells) culture (1×10^4 cells/well) were plated into the wells of a sterile 96-well cell culture plate. The cells were incubated for 18 hours at 37° C. The medium was removed and changed with 100 μl/well of 1 μM test compound. Incubate for 1 hours at 37° C. Ten μl of 500 μM MNNG (N-Methyl-N′-nitro-N-nitrosoguanidine) was added to each well. The medium was aspirated well and incubated for 15 min at 37° C. The cells were washed with the fresh medium. The medium was changed with 1 μM of test compound and incubated for 18 hours at 37° C. 10 μl/well of alamarBlue reagent was added directly to the well and incubated for 1 to 4 hours at 37° C. Fluorescence was measured using a fluorescence excitation wavelength of 560 nm and emission at 590 nm. The percentage of cell death was determined as the ratio of live to dead cells compared with the percentage of cell death in control wells to account for cell death attributed to mechanical stimulation of the cultures.

For another experiment, the target named is T1, MIF (Homo sapiens, UniProt P14174).
T1 sequence (P14174 1-115): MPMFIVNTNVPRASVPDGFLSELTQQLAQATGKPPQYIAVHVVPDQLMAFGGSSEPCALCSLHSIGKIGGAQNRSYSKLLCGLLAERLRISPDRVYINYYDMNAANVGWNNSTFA
Briefly: Nuclease assay of Example 3 (MIF inhibitory activity, Table 4). As to conditions: nuclease assay of Example 3. Type of experiment: biochemical. Also on record: (%) inhibition of MIF nuclease activity: concentration or dose not given beside the values. The protocol:
A rapafucin library was synthesized as described in WO2017/136708 and Guo et al. (2018) Nat. Chem. 11:254-63. The hybrid macrocyclic library consisted of 45,000 compounds in pools of 15 individual compounds. The library compounds were screened for MIF inhibitory activity using a nuclease assay as detailed in FIG. 1 and below.
Nuclease assay: Human genomic DNA (200 ng/reaction, Promega), pcDNA (200 ng/reaction) or PS^30 and its related and non-related substrates (1 μM) was incubated with wild type MIF or its variants at a final concentration of 0.25-8 μM as indicated in 10 mM Tris-HCl buffer (pH 7.0) containing 10 mM MgCl2 and 1 mM DTT or specific buffer as indicated, for 1 h (with pcDNA and small DNA substrates) or 4 h (with human genomic DNA) at 37° C. The reaction was terminated with loading buffer containing 10 mM EDTA and incubation on ice. The human genomic DNA samples were immediately separated on a 1.2% pulse field certified agarose in 0.5×TBE buffer with initial switch time of 1.5 s and a final switch time of 3.5 s for 12 h at 6 V/cm. pcDNA samples were determined by 1% agarose gel. Small DNA substrates were separated on 15% or 25% TBE-urea polyacrylamide (PAGE) gel or 20% TBE PAGE gel. Then gel was stained with 0.5 μg/ml Ethidium Bromide (EtBr) followed by electrophoretic transfer to nylon membrane. Then, Biotin-labeled DNA is further detected by chemiluminescence using Chemiluminescent Nucleic Acid Detection Module (Thermo Scientific).
Structure-activity relationship (SAR) analysis was then conducted on the compounds identified as having MIF inhibitory activity. Compounds having the structure of Formula (I) were then synthesized as shown in Example 1 and tested for MIF inhibitory activity using the nuclease assay described herein and neuronal protection via a cell death assay as detailed below.

`COc1ccc(CC[C@H]2OC(=O)[C@@H]3CCCCN3C(=O)C(=O)C(C)(C)COC(=O)C=CCCN(C)C(=O)[C@@H]3CCCN3C(=O)[C@H](COC(C)(C)C)N(C)C(=O)[C@@H](c3ccccc3)NC(=O)[C@H](C)N(C)C(=O)COc3cc(F)cc2c3)cc1OC` (racemic) [compound 153]: in experiment [1], the “(%) inhibition of cell death” value is reported as 93.2%. The “(%) inhibition of MIF nuclease activity” value on MIF is reported as 71.7%.

In the case of `COc1ccc(CC[C@H]2OC(=O)[C@@H]3CCCCN3C(=O)C(=O)C(C)(C)COC(=O)C=CCCN(C)C(=O)[C@@H]3CCCN3C(=O)[C@H](COC(C)(C)C)N(C)C(=O)[C@H](c3ccccc3)NC(=O)[C@H](C)N(C)C(=O)COc3cc(F)cc2c3)cc1OC` (racemic) [compound 154], in experiment [1], the “(%) inhibition of cell death” value is on record as 46.2%. Further, the “(%) inhibition of MIF nuclease activity” value on MIF was 38.2%.

For the molecule `COc1ccc(CC[C@H]2OC(=O)[C@@H]3CCCCN3C(=O)C(=O)C(C)(C)COC(=O)C=CCCN(C)C(=O)CNC(=O)[C@H](COC(C)(C)C)N(C)C(=O)[C@@H](CC(C)C)NC(=O)CN(C)C(=O)COc3cccc2c3)cc1OC` [compound 1], the “(%) inhibition of cell death” value in experiment [1] is listed as 43.6%. Also, at MIF, the “(%) inhibition of MIF nuclease activity” value was found to be 25.3%.

In the case of `COc1ccc(CC[C@H]2OC(=O)[C@@H]3CCCCN3C(=O)C(=O)C(C)(C)COC(=O)C=CCCN(C)C(=O)[C@H](C)NC(=O)[C@H](COC(C)(C)C)N(C)C(=O)[C@@H](CC(C)C)NC(=O)CN(C)C(=O)COc3cccc2c3)cc1OC` [compound 2], the “(%) inhibition of cell death” value in experiment [1] amounted to 41.1%. Moreover, the “(%) inhibition of MIF nuclease activity” value on MIF turned out to be 15.3%.

As for `COc1ccc(CC[C@H]2OC(=O)[C@@H]3CCCCN3C(=O)C(=O)C(C)(C)COC(=O)C=CCCN(C)C(=O)[C@@H](C)NC(=O)[C@H](COC(C)(C)C)N(C)C(=O)[C@@H](CC(C)C)NC(=O)CN(C)C(=O)COc3cccc2c3)cc1OC` [compound 3], in experiment [1], the “(%) inhibition of cell death” value worked out at 40.6%. Also, on MIF, the “(%) inhibition of MIF nuclease activity” value was found to be 21.0%.

Turning to `CCC[C@@H]1NC(=O)[C@H](COC(C)(C)C)N(C)C(=O)[C@@H](CC(C)C)NC(=O)CN(C)C(=O)COc2cccc(c2)[C@@H](CCc2ccc(OC)c(OC)c2)OC(=O)[C@@H]2CCCCN2C(=O)C(=O)C(C)(C)COC(=O)C=CCCN(C)C1=O` [compound 4], the “(%) inhibition of cell death” value in experiment [1] was 39.7%. Besides, the “(%) inhibition of MIF nuclease activity” value at MIF came to 10.8%.

Turning to `COCC[C@@H]1NC(=O)[C@H](COC(C)(C)C)N(C)C(=O)[C@@H](CC(C)C)NC(=O)CN(C)C(=O)COc2cccc(c2)[C@@H](CCc2ccc(OC)c(OC)c2)OC(=O)[C@@H]2CCCCN2C(=O)C(=O)C(C)(C)COC(=O)C=CCCN(C)C1=O` [compound 5], the “(%) inhibition of cell death” value in experiment [1] is listed as 41.7%. Besides, the “(%) inhibition of MIF nuclease activity” value on MIF amounted to 10.7%.

Turning to `COc1ccc(CC[C@H]2OC(=O)[C@@H]3CCCCN3C(=O)C(=O)C(C)(C)COC(=O)C=CCCN(C)C(=O)[C@H](CC(C)C)NC(=O)[C@H](COC(C)(C)C)N(C)C(=O)[C@@H](CC(C)C)NC(=O)CN(C)C(=O)COc3cccc2c3)cc1OC` [compound 6], in experiment [1], the “(%) inhibition of cell death” value is 46.5%. Moreover, the “(%) inhibition of MIF nuclease activity” value on MIF was found to be 30.8%.

Turning to `COc1ccc(CC[C@H]2OC(=O)[C@@H]3CCCCN3C(=O)C(=O)C(C)(C)COC(=O)C=CCCN(C)C(=O)[C@@H](CC(C)C)NC(=O)[C@H](COC(C)(C)C)N(C)C(=O)[C@@H](CC(C)C)NC(=O)CN(C)C(=O)COc3cccc2c3)cc1OC` [compound 7], in experiment [1], the “(%) inhibition of cell death” value came out at 54.5%. In addition, the “(%) inhibition of MIF nuclease activity” value at MIF was determined as 30.1%.

With `COc1ccc(CC[C@H]2OC(=O)[C@@H]3CCCCN3C(=O)C(=O)C(C)(C)COC(=O)C=CCCN(C)C(=O)[C@H](Cc3ccccc3)NC(=O)[C@H](COC(C)(C)C)N(C)C(=O)[C@@H](CC(C)C)NC(=O)CN(C)C(=O)COc3cccc2c3)cc1OC` [compound 8], the “(%) inhibition of cell death” value in experiment [1] is on record as 61.6%. For the same molecule, the “(%) inhibition of MIF nuclease activity” value at MIF came to 31.3%.

As to `COc1ccc(CC[C@H]2OC(=O)[C@@H]3CCCCN3C(=O)C(=O)C(C)(C)COC(=O)C=CCCN(C)C(=O)[C@@H](Cc3ccccc3)NC(=O)[C@H](COC(C)(C)C)N(C)C(=O)[C@@H](CC(C)C)NC(=O)CN(C)C(=O)COc3cccc2c3)cc1OC` [compound 9], the “(%) inhibition of cell death” value in experiment [1] was 57.4%. Besides, the “(%) inhibition of MIF nuclease activity” value on MIF is 16.5%.

Turning to `COc1ccc(CC[C@H]2OC(=O)[C@@H]3CCCCN3C(=O)C(=O)C(C)(C)COC(=O)C=CCCN(C)C(=O)[C@H](Cc3ccc(F)cc3)NC(=O)[C@H](COC(C)(C)C)N(C)C(=O)[C@@H](CC(C)C)NC(=O)CN(C)C(=O)COc3cccc2c3)cc1OC` [compound 10], the “(%) inhibition of cell death” value in experiment [1] is recorded as 57.2%. At MIF, the “(%) inhibition of MIF nuclease activity” value turned out to be 56.8%.

Take `COc1ccc(CC[C@H]2OC(=O)[C@@H]3CCCCN3C(=O)C(=O)C(C)(C)COC(=O)C=CCCN(C)C(=O)[C@@H]3CCCN3C(=O)[C@H](COC(C)(C)C)N(C)C(=O)[C@@H](CC(C)C)NC(=O)CN(C)C(=O)COc3cccc2c3)cc1OC` [compound 11]: the “(%) inhibition of cell death” value in experiment [1] is given as 48.9%. For the same molecule, at MIF, the “(%) inhibition of MIF nuclease activity” value stood at 25.6%.

In the case of `COc1ccc(CC[C@H]2OC(=O)[C@@H]3CCCCN3C(=O)C(=O)C(C)(C)COC(=O)C=CCCN(C)C(=O)[C@H](CC3CCCCC3)NC(=O)[C@H](COC(C)(C)C)N(C)C(=O)[C@@H](CC(C)C)NC(=O)CN(C)C(=O)COc3cccc2c3)cc1OC` [compound 12], the “(%) inhibition of cell death” value in experiment [1] was found to be 52.0%. For the same molecule, the “(%) inhibition of MIF nuclease activity” value at MIF is given as 28.9%.

Regarding `COc1ccc(CC[C@H]2OC(=O)[C@@H]3CCCCN3C(=O)C(=O)C(C)(C)COC(=O)C=CCCN(C)C(=O)[C@H](Cc3ccc4ccccc4c3)NC(=O)[C@H](COC(C)(C)C)N(C)C(=O)[C@@H](CC(C)C)NC(=O)CN(C)C(=O)COc3cccc2c3)cc1OC` [compound 13], the “(%) inhibition of cell death” value in experiment [1] was determined as 46.7%. The “(%) inhibition of MIF nuclease activity” value at MIF was found to be 21.9%.

For the molecule `COc1ccc(CC[C@H]2OC(=O)[C@@H]3CCCCN3C(=O)C(=O)C(C)(C)COC(=O)C=CCCN(C)C(=O)[C@H](C(C)C)NC(=O)[C@H](COC(C)(C)C)N(C)C(=O)[C@@H](CC(C)C)NC(=O)CN(C)C(=O)COc3cccc2c3)cc1OC` [compound 14], the “(%) inhibition of cell death” value in experiment [1] is reported as 41.6%. Also, the “(%) inhibition of MIF nuclease activity” value on MIF is recorded as 11.2%.

With `COc1ccc(CC[C@H]2OC(=O)[C@@H]3CCCCN3C(=O)C(=O)C(C)(C)COC(=O)C=CCCN(C)C(=O)C(c3ccccc3)NC(=O)[C@H](COC(C)(C)C)N(C)C(=O)[C@@H](CC(C)C)NC(=O)CN(C)C(=O)COc3cccc2c3)cc1OC` (stereo partly drawn) [compound 15], the “(%) inhibition of cell death” value in experiment [1] is 53.4%. Moreover, at MIF, the “(%) inhibition of MIF nuclease activity” value is recorded as 8.7%.

As for `COc1ccc(CC[C@H]2OC(=O)[C@@H]3CCCCN3C(=O)C(=O)C(C)(C)COC(=O)C=CCCN(C)C(=O)[C@H](C)NC(=O)[C@H](COC(C)(C)C)N(C)C(=O)[C@H](Cc3ccc4ccccc4c3)NC(=O)[C@H](C)N(C)C(=O)COc3cccc2c3)cc1OC` [compound 17], the “(%) inhibition of cell death” value in experiment [1] is reported as 78.3%. On MIF, the “(%) inhibition of MIF nuclease activity” value is listed as 63.7%.

`COc1ccc(CC[C@H]2OC(=O)[C@@H]3CCCCN3C(=O)C(=O)C(C)(C)COC(=O)C=CCCN(C)C(=O)[C@@H](C)NC(=O)[C@H](COC(C)(C)C)N(C)C(=O)[C@H](Cc3ccc4ccccc4c3)NC(=O)[C@H](C)N(C)C(=O)COc3cccc2c3)cc1OC` [compound 18]: in experiment [1], the “(%) inhibition of cell death” value is given as 78.4%. For the same molecule, on MIF, the “(%) inhibition of MIF nuclease activity” value is 65.0%.

Consider `COc1ccc(CC[C@H]2OC(=O)[C@@H]3CCCCN3C(=O)C(=O)C(C)(C)COC(=O)C=CCCN(C)C(=O)[C@@H]3CCCN3C(=O)[C@H](COC(=O)CCC(=O)OCCOCCOCCOCCNC(=O)CCCCC3SC[C@H]4NC(=O)N[C@@H]34)N(C)C(=O)C(c3ccccc3)NC(=O)[C@H](C)N(C)C(=O)COc3cccc2c3)cc1OC` (stereo partly drawn) [compound 130], for which, in experiment [1], the “(%) inhibition of cell death” value is recorded as 48.2%.
